Assay results from patent publication US12325676B2, “Cationic lipid compound and composition for delivery of nucleic acids and use thereof” (Shenzhen Rhegen Biotechnology Co., Ltd., priority 2022, dated 2025).

Legend:
[1] = Encapsulation rate of mRNA-loaded lipid nanoparticles (Ribogreen kit); assay type: physicochemical
Protocol: (§1) Luciferase mRNA was diluted in 10-100 mM citrate buffer at pH 4.0; the lipid components (cationic lipids shown in the present disclosure: DSPC:cholesterol:PEG lipids (DMG-PEG2000)) were dissolved in ethanol at a molar ratio of 50:10:38.5:1.5.
(§2) 3 mL of a mRNA buffer and 1 mL of a lipid solution were loaded into two 5 mL syringes respectively, and the syringes were installed on a microfluidic syringe pump. Chips were connected to the syringes and syringe pump flow rate was set. Clicking the start button of the syringe pump caused injection into the chip at a flow rate ratio of 3:1. Under observation of the color of the product at the exit of the chip, after discarding the first 5 milky white droplets (about 100 μL), the back-end sample was collected into an EP tube. The collected product was placed in a dialysis bag and dialyzed for 6 h (MWCO: 100 KDa) in 10 mM PBS (pH 7.4) intervals. Subsequently, after being concentrated by ultrafiltration to the desired concentration, the lipid nanoparticles were filtered through a 0.22 μm sterile filter and then stored at 4° C.
(§3) Tests were performed to calculate the encapsulation rate of the products according to the instructions of Ribogreen kit. Particle size and polydispersity index (PDI) detection as well as zeta potential analysis was performed on a Malvern Zetasizer nano instrument using standard assays.

[2] = Particle size, PDI and zeta potential of mRNA-loaded lipid nanoparticles (Malvern Zetasizer nano); assay type: physicochemical
Protocol: as §1, §2, §3

[3] = Encapsulation rate of mRNA-loaded lipid nanoparticles (Ribogreen kit); assay type: physicochemical; details: Table 4 batch; EPO mRNA LNP prepared as Example 20
[4] = system: BALB/c mice; test: In vivo EPO protein expression after tail i.v. injection of EPO-mRNA LNP, serum ELISA; details: 6 hours after tail i.v. injection of 20 μg EPO-mRNA-lipid nanoparticles, female Balb/c mice
Protocol: In the example, the effects of in vivo transfection of erythropoietin (EPO) by various cationic liposomes were compared. Nanoparticles were prepared in the same manner as in Example 20, and the nucleotide sequence corresponding to the EPO mRNA used is given in CN114380724B, SEQ ID NO:2. After preparation, 20 μg of EPO-mRNA-lipid nanoparticles were injected via tail intravenous injection in 6-8 week female Balb/c mice. 6 hours later the mice were subjected to blood sampling from the eye frame. After centrifugation to separate the serum, EPO protein expression was determined using ELISA. The basic characteristics of the mRNA used include ARCA cap structure, polyA tail length of 100-120 nt, and complete substitution of pseudouridine.

[5] = Particle size, PDI and zeta potential of mRNA-loaded lipid nanoparticles (Malvern Zetasizer nano); assay type: physicochemical; details: Table 4 batch; EPO mRNA LNP prepared as Example 20
[6] = system: BALB/c mice; test: In vivo expression of luciferase mRNA delivered by LNP, tail intravenous injection, small animal imaging; details: Table 3, 5 μg mRNA, female BALB/c mice, DLin-MC3-DMA = 100
Protocol: LUC-mRNA-lipid nanoparticles containing 5 μg mRNA (see SEQ ID NO: 1 in the Patent Application Publication CN114380724A for the corresponding nucleotide sequence of LUC-mRNA) were injected via tail intravenous injection in 6-8 week old female BALB/c mice, prepared as in Example 19. 100 μg of D-Luciferin Potassium Salt was injected via tail intravenous injection into the mice at specific time points and assayed using the PerkinElmer Small Animal Imaging System. Fluc is commonly used in mammalian cell cultures to measure gene expression and cell viability, and it emits biological fluorescent light in the presence of the substrate […]. The basic characteristics of the mRNA used include ARCA cap structure, polyA tail length of 120 nt, and complete substitution of pseudouridine.
The effect of delivering luciferase mRNA using more cationic lipids were validated according to the methods of Example 20 and Example 21.

[7] = system: C57BL6 mice; test: Intratumoral injection of luciferase mRNA LNP, fluorescence of tumor and liver; assay type: in vivo; details: luciferase mRNA LNP 25 μL/2.5 μg intratumoral, B 16F 10 tumor in C57BL6 mice, imaging after 24 h (FIGS. 6 and 7)
Protocol: Different types of lipid nanoparticles encapsulating luciferase mRNA in were prepared accordance with the preparation of Example 20. Tumors were injected subcutaneously in the right abdomen of 6-8 week female C57BL6 mice at 5×10^5 B 16F 10 cells (from CAS Cell Bank, CSTR:19375.09.3101MOUTCM36)/mouse, and tumor growth was observed and recorded periodically. On the 8th day after tumor inoculation, the length (L, mm) and width (D, mm) of the tumors were measured by using a vernier caliper, and the tumor volume (V) was calculated according to the formula V=(L×D^2)/2. Mice with tumor volume in the range of 80-120 mm^3 were taken and randomly grouped, and intratumorally injected with different types of lipid nanoparticles encapsulating luciferase mRNA at the volume of 25 μL/2.5 μg. Anatomical imaging was performed after 24 h to detect the fluorescence intensity of the mouse liver and tumor (as shown in FIGS. 6 and 7). […] This indicates better in situ tumor expression and lower liver […], which is suitable for encapsulation and delivery of some tumor therapy-related nucleic acid drugs.

[8] = Table 1, Luciferase mRNA LNP, cationic lipid:DSPC:cholesterol:DMG-PEG2000 50:10:38.5:1.5 molar
[9] = Table 3 batch, luciferase mRNA LNP prepared as Example 20

| Structure (SMILES) | Encapsulation rate (%) [1, 8] [%] | PDI [2, 8] | Particle size (nm) [2, 8] [nm] | Zeta potential (mV) [2, 8] [mV] | Encapsulation rate (%) [1, 9] [%] | Encapsulation rate (%) [3] [%] | PDI [2, 9] | Particle size (nm) [2, 9] [nm] | EPO concentration [4] [pg/mL] | PDI [5] | Particle size (nm) [5] [nm] | relative fluorescence intensity (%) [6] [%] | brightness (fluorescence intensity) at the tumor [7] | brightness (fluorescence intensity) in the liver [7] |
| --- | --- | --- | --- | --- | --- | --- | --- | --- | --- | --- | --- | --- | --- | --- |
| CCCCCCCCCCSCCC(=O)OCCCCCN(CCO)CCCCCCCC(=O)OC(CCCCCCCC)CCCCCCCC [Compound 29] | 95.6 | 0.03 | 105.5 | −1.31 |  |  |  |  |  |  |  |  |  |  |
| CCCCCCCCCCSCC(C)C(=O)OCCCCCN(CCO)CCCCCCCC(=O)OC(CCCCCCCC)CCCCCCCC (stereo not drawn) [Compound 30] | 95.7 | 0.11 | 121.2 | −0.26 |  |  |  |  |  |  |  |  |  |  |
| CCCCCCCCSCC(C)C(=O)OCCCCCN(CCO)CCCCCCCOC(=O)C(CCCCCCCC)CCCCCCCC (stereo not drawn) [Compound 44] | 96.4 | 0.21 | 104.1 | −2.82 | 97.1 | 95.5 | 0.10 | 71.1 | 4.89e+07 | 0.17 | 82.5 | 843 ± 52 |  |  |
| CCCCCCCCC(CCCCCCCC)C(=O)OCCCCCCCN(CCO)CCCCCCCOC(=O)C(C)COCCCCCC (stereo not drawn) [Compound 17] | 92.5 | 0.10 | 90.9 | −0.15 | 97.6 | 96.9 | 0.11 | 68.2 | 3.25e+07 | 0.09 | 74.0 | 686 ± 45 |  |  |
| CCCCCCCCSC(CCCCCC)C(=O)OCCCCCCN(CCO)CCCCCCOC(=O)C(CCCCCC)CCCCCCCC (stereo not drawn) [Compound 46] | 95.6 | 0.11 | 101.3 | −4.12 |  |  |  |  |  |  |  |  |  |  |
| CCCCCCCCCCSCCOC(=O)CCCCCCCN(CCO)CCCCCCCC(=O)OC(CCCCCCCC)CCCCCCCC [Compound 41] | 94.9 | 0.17 | 123.4 | −7.02 |  |  |  |  |  |  |  |  |  |  |
| CCCCCCCCOCC(C)C(=O)OCCCCCN(CCCCCCCC(=O)OC(CCCCCCCC)CCCCCCCC)CCN(CC)CC (stereo not drawn) [Compound 28] | 95.9 | 0.04 | 127.6 | 5.29 |  |  |  |  |  |  |  |  |  |  |
| CCCCCCCCCCSCCC(=O)OCCCCCN(CCCCCCCC(=O)OC(CCCCCCCC)CCCCCCCC)CCN(C)C [Compound 57] | 94.1 | 0.24 | 122.8 | 7.09 |  |  |  |  |  |  |  |  |  |  |
| CCCCCCCCCCOCC(C)C(=O)OCCCCCN(CCO)CCCCCCCC(=O)OC(CCCCCCCC)CCCCCCCC (stereo not drawn) [Compound 2] | 87.8 | 0.12 | 97.3 | 0.49 |  |  |  |  |  |  |  |  |  |  |
| CCCCCCCCCCOCC(CCC)C(=O)OCCCCCN(CCO)CCCCCCCC(=O)OC(CCCCCCCC)CCCCCCCC (stereo not drawn) [Compound 4] | 83.7 | 0.21 | 94.4 | 0.39 |  |  |  |  |  |  |  |  |  |  |
| CCCCCCCCSCCOC(=O)CCCCCCCN(CCCCCCCC(=O)OC(CCCCCCCC)CCCCCCCC)CCN(C)C [Compound 55] | 91.1 | 0.13 | 102.3 | 7.37 |  |  |  |  |  |  |  |  |  |  |
| CCCCCCCCOCC(C)C(=O)OCCCCCN(CCO)CCCCCCCOC(=O)C(CCCCCCCC)CCCCCCCC (stereo not drawn) [Compound 16] |  |  |  |  | 95.6 | 96.5 | 0.20 | 90.9 | 3.01e+07 | 0.12 | 75.4 | 574 ± 102 |  |  |
| CCCCCCCCC(CCCCCCCC)OC(=O)CCCCCCCN(CCO)CCCCCCCOC(=O)C(C)CSCCCCCC (stereo not drawn) [Compound 51] |  |  |  |  | 98.0 | 95.0 | 0.11 | 91.0 | 6.68e+07 | 0.14 | 75.3 | 734 ± 51 | higher brightness at the tumor | lower brightness in the liver |
| CCCCCCCCC(CCCCCCCC)OC(=O)CCCCCCCN(CCO)CCCCCCC(=O)OCCOCCCCCCC [Compound 14] | 95.7 | 0.22 | 119.0 | −3.27 |  |  |  |  |  |  |  |  |  |  |
| CCCCCCCCSCC(CC)C(=O)OCCCCCN(CCO)CCCCCCCC(=O)OC(CCCCCCCC)CCCCCCCC (stereo not drawn) [Compound 36] | 93.9 | 0.11 | 98.4 | 0.55 |  |  |  |  |  |  |  |  |  |  |
| CCCCCCCCOCC(CCCC)C(=O)OCCCCCN(CCO)CCCCCCCC(=O)OC(CCCCCCCC)CCCCCCCC (stereo not drawn) [Compound 6] | 63.9 | 0.17 | 95.6 | 0.79 |  |  |  |  |  |  |  |  |  |  |
| CCCCCCCCSCC(C)C(=O)OCCCCCN(CCCO)CCCCCCCC(=O)OC(CCCCCCCC)CCCCCCCC (stereo not drawn) [Compound 48] | 92.5 | 0.10 | 94.2 | −0.14 |  |  |  |  |  |  |  |  |  |  |
| CCCCCCCCC(CCCCCCCC)C(=O)OCCCCCCCN(CCO)CCCCCCCOC(=O)C(C)CSCCCCCC (stereo not drawn) [Compound 45] |  |  |  |  | 96.8 | 93.9 | 0.15 | 80.9 | 3.46e+07 | 0.15 | 81.0 | 559 ± 33 |  |  |
| CCCCCCCCCCOCC(CC)C(=O)OCCCCCN(CCO)CCCCCCCC(=O)OC(CCCCCCCC)CCCCCCCC (stereo not drawn) [Compound 3] | 87.5 | 0.10 | 113.9 | 1.95 |  |  |  |  |  |  |  |  |  |  |
| CCCCCCCCC(CCCCCCCC)OC(=O)CCCCCCCN(CCO)CCCCCCCOC(=O)C(C)COCCCCCC (stereo not drawn) [Compound 23] |  |  |  |  | 97.0 | 96.5 | 0.10 | 75.4 | 4.11e+07 | 0.11 | 81.7 | 764 ± 39 |  |  |
